# Article PMC8159961, “Exploring protein hotspots by optimized fragment pharmacophores” (Nature Communications, 2021)
# Columns and labels:
# human 5-HT1A receptor = target: T1, human 5-HT1A receptor (Homo sapiens, UniProt P08908); experiment: GPCR radioligand binding assay, [3H]-8-OH-DPAT displacement, HEK293 membranes; conditions: for 5-HT1A % Inhibition by plate position: 10 µM; for %inh 5-HT1A average: average of exp_1 and exp_2; for %inh 5-HT1A exp_1: replicate exp_1; for %inh 5-HT1A exp_2: replicate exp_2; for %inh 5-HT1A corrected*: average, values below 0 and above 100% were set as 0 and 100
# T1 construct: expressed in transfected cells
# T1 sequence (P08908 1-422): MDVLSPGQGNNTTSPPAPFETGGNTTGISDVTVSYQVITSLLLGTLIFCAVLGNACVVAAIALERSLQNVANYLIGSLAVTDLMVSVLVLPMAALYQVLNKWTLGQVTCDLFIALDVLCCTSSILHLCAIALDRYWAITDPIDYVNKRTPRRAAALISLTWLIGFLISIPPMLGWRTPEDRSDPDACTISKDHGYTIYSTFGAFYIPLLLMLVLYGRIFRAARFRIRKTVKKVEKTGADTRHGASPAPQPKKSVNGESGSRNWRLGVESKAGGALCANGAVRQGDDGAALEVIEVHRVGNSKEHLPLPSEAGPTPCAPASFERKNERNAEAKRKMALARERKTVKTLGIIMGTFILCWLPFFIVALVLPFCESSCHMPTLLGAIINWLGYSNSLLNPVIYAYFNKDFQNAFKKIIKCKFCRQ
# human 5-HT6 receptor = target: T2, human 5-HT6 receptor (Homo sapiens, UniProt P50406); experiment: GPCR radioligand binding assay, [3H]-LSD displacement, HEK293 membranes; conditions: for 5-HT6 % Inhibition by plate position: 10 µM; for %inh 5-HT6 average: average of exp_1 and exp_2; for %inh 5-HT6 corrected*: average, values below 0 and above 100% were set as 0 and 100; for %inh 5-HT6 exp_1: replicate exp_1; for %inh 5-HT6 exp_2: replicate exp_2
# T2 construct: expressed in transfected cells
# human 5-HT7b receptor = target: T3, human 5-HT7b receptor (Homo sapiens, UniProt P34969); experiment: GPCR radioligand binding assay, [3H]-5-CT displacement, HEK293 membranes; conditions: for 5-HT7 % Inhibition by plate position: 10 µM; for %inh 5-HT7 exp_1: replicate exp_1; for %inh 5-HT7 exp_2: replicate exp_2; for %inh 5-HT7 average: average of exp_1 and exp_2
# T3 construct: expressed in transfected cells
# T3 sequence (P34969 1-432): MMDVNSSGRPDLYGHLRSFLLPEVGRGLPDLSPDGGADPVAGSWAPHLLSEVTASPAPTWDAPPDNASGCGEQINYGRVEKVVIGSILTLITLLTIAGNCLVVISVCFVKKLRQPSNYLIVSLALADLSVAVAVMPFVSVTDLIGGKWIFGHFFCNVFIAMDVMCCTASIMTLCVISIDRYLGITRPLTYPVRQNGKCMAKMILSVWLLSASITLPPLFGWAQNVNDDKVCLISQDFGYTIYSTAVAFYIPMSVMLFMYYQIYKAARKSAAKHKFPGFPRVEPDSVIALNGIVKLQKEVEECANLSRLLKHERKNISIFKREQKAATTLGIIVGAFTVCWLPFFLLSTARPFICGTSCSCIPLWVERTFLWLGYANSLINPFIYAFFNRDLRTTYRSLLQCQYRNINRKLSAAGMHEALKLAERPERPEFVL
# T2 sequence (P50406 whole entry): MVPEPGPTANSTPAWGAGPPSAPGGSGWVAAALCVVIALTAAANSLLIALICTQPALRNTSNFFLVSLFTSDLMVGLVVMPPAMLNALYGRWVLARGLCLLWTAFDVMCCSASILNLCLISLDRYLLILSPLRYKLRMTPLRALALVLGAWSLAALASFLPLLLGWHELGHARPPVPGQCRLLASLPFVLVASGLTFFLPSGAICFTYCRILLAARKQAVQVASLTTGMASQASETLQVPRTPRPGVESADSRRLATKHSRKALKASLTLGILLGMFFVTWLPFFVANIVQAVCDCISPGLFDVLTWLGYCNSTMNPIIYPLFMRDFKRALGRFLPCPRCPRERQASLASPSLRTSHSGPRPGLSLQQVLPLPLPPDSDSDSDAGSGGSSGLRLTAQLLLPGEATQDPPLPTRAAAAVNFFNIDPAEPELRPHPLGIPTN
Compound,5-HT1A % Inhibition by plate position (human 5-HT1A receptor) [%],%inh 5-HT1A average (human 5-HT1A receptor) [%],%inh 5-HT1A exp_1 (human 5-HT1A receptor) [%],%inh 5-HT1A exp_2 (human 5-HT1A receptor) [%],5-HT6 % Inhibition by plate position (human 5-HT6 receptor) [%],%inh 5-HT6 average (human 5-HT6 receptor) [%],%inh 5-HT6 corrected* (human 5-HT6 receptor) [%],%inh 5-HT6 exp_1 (human 5-HT6 receptor) [%],%inh 5-HT6 exp_2 (human 5-HT6 receptor) [%],5-HT7 % Inhibition by plate position (human 5-HT7b receptor) [%],%inh 5-HT7 exp_1 (human 5-HT7b receptor) [%],%inh 5-HT7 exp_2 (human 5-HT7b receptor) [%],%inh 5-HT1A corrected* (human 5-HT1A receptor) [%],%inh 5-HT7 average (human 5-HT7b receptor) [%]
Nc1ccc(SC(F)F)cc1 [D1],0,-16,-6.6,-25,45,45,45,52,38,8,5.58,10,,
CCc1ccc(NC2=NCCCS2)cc1 [D2],,29,30,27,16,16,16,19,13,6,12,0.291,29,
CCn1cnc2ccccc21 [D4],0,-8,-16,0,23,23,23,23,23,0,1.55,-12,,-5.34
CCCN1C(=O)CC(=O)NC1=S [D5],0,-8.49,-9,-8,49,49,49,57,41,10,13,6,,
Cc1ccc(C)n1Cc1ccccc1Cl [D6],,6.37,4.33,8,26,26,26,30,23,0,-2.55,-8.54,6.37,-5.55
Cc1ccc(-c2ccc(O)cc2)cc1 [D7],0,-20,-25,-14,45,45,45,52,38,0,2.16,-17,,-7.45
c1ccc2oc(C3CCCNC3)nc2c1 (stereo not shown) [D10],,78,77,80,25,25,25,22,28,0,-4,3.22,78,-0.305
COc1ccc(CN2CCNCC2)cc1F [D11],0,-7,10,-23,41,41,41,45,38,0,-5,4.58,,-0.31
O=C(c1ccncc1)N1CCNCC1 [E2],,3.69,13,-6,24,24,24,15,33,3.34,1.81,5,3.69,
CC1C(=O)NC(=O)N1c1ccc(Cl)cc1 (stereo not shown) [E3],0,-4,5,-13,43,43,43,41,44,17,19,14,,
CCN(CC)c1cccc(C)c1 [E4],,8.49,13,4,31,31,31,31,32,7.56,12,2.81,8.49,
O=C(CN1CCNCC1)c1ccccc1 [E5],,6,9.52,3,49,49,49,45,54,8,14,3,6,
Clc1ccc2nnnn2n1 [E6],,3.55,3.18,4,35,35,35,38,31,0,-5,-20,3.55,-13
c1cnc2c(c1)NCCC2 [E7],,12,15,9,28,28,28,28,29,0,6,-14,12,-3.73
